Drawing on PubChem BioAssay AID1963847 (Molecular Pharmacology Branch, DTP, NCI, 2024), this text covers viability, T/C and IC50 for 6 molecules.

pIC50: −log10 of the molar value. Where “and” joins values, the source holds several entries; their conditions need not be identical. Equal entries are not always repeated.

The assay relates to 415267-285-R-J2-PDC complex spheroid viability. Put plainly: Anticancer human tumor 415267-285-R-J2-PDC patient-derived breast carcinoma cell line growth inhibition [POLQ]. Particulars: for viability, T/C: stronger effect = lower value. The method, then: Multicellular complex tumor spheroid response to Polymerase (POL) inhibitors (novobiocin, ART-558, RP6685) in combination with a variety of drugs and investigational agents in selected tumor cell lines
The POL inhibitors (novobiocin, ART-558, and RP6685) were evaluated both individually and in combination with standard of care and investigational anticancer small molecules within a complex spheroid model of solid tumors. . Complex spheroids include a stromal component modeled by human endothelial cells (HUVEC) and fibroblasts modeled by human mesenchymal stem cells (MSCs). The concentration ranges selected for each drug and investigational agent were based upon clinically achievable concentrations if the clinical Cmax of the agent was known.
Compounds. The drugs and investigational agents: novobiocin (NSC847541), ART-558 (NSC835418), RP-6685 (NSC848927), peposertib (NSC802822), ceralasertib (NSC780249), elimusertib (NSC800525), camonsertib (NSC841442), AZD-1390 (NSC803789), olaparib (NSC753686), talazoparib (NSC767125), rucaparib (NSC756644), sotorasib (NSC818433), MRTX-1133 (NSC836407), SN-38 (NSC673596), topotecan (NSC609699), epotoside (NSC141540), doxorubicin (NSC123127), gemcitabine (NSC613327), 5-fluorouracil (NSC19893), paclitaxel (NSC125973), vemurafenib (NSC761431), MSA-2 (NSC828583), SN-011 (NSC837082), adavosertib (NSC754352), prexasertib (NSC758257), carboplatin (NSC241240) and oxaliplatin (NSC266046), were obtained from the National Cancer Institute (NCI) Developmental Therapeutics Program Chemical Repository (21). The FDA-approved anticancer drug set is available from the Developmental Therapeutics Program at https://dtp.cancer.gov/organization/dscb/obtaining/. […] The stock solutions were prepared in dimethyl sulfoxide (DMSO, Sigma-Aldrich, St. Louis, MO, cat. D2650), except for the platinum compounds which were prepared in saline (Quality Biological, Gaithersburg, MD, cat. 114-055-101), at 800-fold the tested concentration and stored at -70 degrees C prior to their use. All drugs and investigational agents were tested over a range starting from a high concentration at or near the clinical Cmax and decreasing in half-log increments. If the clinical Cmax for an agent had not been determined, the highest concentration tested was 10 microM, except for SN-38, which was tested at a high concentration of 1 microM.
Cell Culture. All cells were maintained in an incubator at 37 degrees C and 5% CO2 with 95% humidity. The PDC lines were cultured according to standard operating procedures established by the NCI PDMR (https://pdmr.cancer.gov). Table 3 of the manuscript, lists the cell lines along with the number of the three cell types plated to form the mct-spheroids and media for tumor cell growth. After thawing, all PDC lines, except 997537-175-T-J1-PDC and 415267-285-R-J2-PDC, were cultured in Matrigel-coated flasks prepared with a working solution of 1X Ham's F-12 nutrient mix, without supplementation (Thermo Fisher Scientific, cat. 11765054), 100 U/mL penicillin-streptomycin (Thermo Fisher Scientific, cat. 15140122), and 2.5% Matrigel (Corning Inc., Corning, NY, cat. 354248) for the first three passages. The two PDC lines 997537-175-T-J1-PDC and 415267-285-R-J2-PDC were cultured on uncoated flasks. The 857933-349-R-J2-PDC line was cultured in 6C/Colon 1B media containing advanced DMEM/F-12 (Thermo Fisher Scientific, cat. 12634028), 10 mM HEPES (Thermo Fisher Scientific, cat. 15630080), 1X GlutaMAX supplement (Thermo Fisher Scientific, cat. 35050061), 0.1 mg/mL primocin (InvivoGen, San Diego, CA, cat. ant-pm-2), 10% defined fetal bovine serum, heat inactivated (HyClone Laboratories Inc., Logan, UT, cat. SH30070.03HI), 50% L-WRN conditioned media (ATCC, cat. CRL-3276), 1.25 mM N-Acetyl-L-cysteine (Sigma-Aldrich, cat. A9165), 10 mM nicotinamide (Sigma-Aldrich, cat. N0636), 1X B-27 supplement (Thermo Fisher Scientific, cat. 17504044), 1X N-2 supplement (Thermo Fisher Scientific, cat. […]

[1] abbreviates: curve of first compound, second compound 0.0316 µM.
Setting [2] is: curve of first compound, second compound 0.1 µM.
[3] abbreviates: curve of first compound, second compound 0.316 µM.
Setting [4] is: curve of first compound, second compound 1 µM.
Where [5] appears, read: curve of first compound, second compound 3.16 µM.
Setting [6] is: curve of first compound, second compound 10 µM.
The mark [7] stands for this setting: second compound 0.0316 µM, first compound 0.0316 µM.
[8] abbreviates: second compound 0.0316 µM, first compound 0.1 µM.
Setting [9] is: second compound 0.0316 µM, first compound 0.316 µM.
The mark [10] stands for this setting: second compound 0.0316 µM, first compound 1 µM.
[11] abbreviates: second compound 0.0316 µM, first compound 3.16 µM.
[12] abbreviates: second compound 0.0316 µM, first compound 10 µM.
[13] abbreviates: second compound 0.1 µM, first compound 0.0316 µM.
The mark [14] stands for this setting: second compound 0.1 µM, first compound 0.1 µM.
Setting [15] is: second compound 0.1 µM, first compound 0.316 µM.
Where [16] appears, read: second compound 0.1 µM, first compound 1 µM.
Where [17] appears, read: second compound 0.1 µM, first compound 3.16 µM.
The mark [18] stands for this setting: second compound 0.1 µM, first compound 10 µM.
The mark [19] stands for this setting: second compound 0.316 µM, first compound 0.0316 µM.
The mark [20] stands for this setting: second compound 0.316 µM, first compound 0.1 µM.
The mark [21] stands for this setting: second compound 0.316 µM, first compound 0.316 µM.
[22] abbreviates: second compound 0.316 µM, first compound 1 µM.
[23] abbreviates: second compound 0.316 µM, first compound 3.16 µM.
[24] abbreviates: second compound 0.316 µM, first compound 10 µM.
[25] abbreviates: second compound 1 µM, first compound 0.0316 µM.
Setting [26] is: second compound 1 µM, first compound 0.1 µM.
[27] abbreviates: second compound 1 µM, first compound 0.316 µM.
The mark [28] stands for this setting: second compound 1 µM, first compound 1 µM.
[29] abbreviates: second compound 1 µM, first compound 3.16 µM.
[30] abbreviates: second compound 1 µM, first compound 10 µM.
Setting [31] is: second compound 3.16 µM, first compound 0.0316 µM.
The mark [32] stands for this setting: second compound 3.16 µM, first compound 0.1 µM.
Where [33] appears, read: second compound 3.16 µM, first compound 0.316 µM.
Where [34] appears, read: second compound 3.16 µM, first compound 1 µM.
The mark [35] stands for this setting: second compound 3.16 µM, first compound 3.16 µM.
[36] abbreviates: second compound 3.16 µM, first compound 10 µM.
Setting [37] is: second compound 10 µM, first compound 0.0316 µM.
[38] abbreviates: second compound 10 µM, first compound 0.1 µM.
The mark [39] stands for this setting: second compound 10 µM, first compound 0.316 µM.
Where [40] appears, read: second compound 10 µM, first compound 1 µM.
[41] abbreviates: second compound 10 µM, first compound 3.16 µM.
Setting [42] is: second compound 10 µM, first compound 10 µM.
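Also: spheroids exposed to compounds for one week before readout.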
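For viability, T/C in this document: luminescence used as stand-in measure of viable cells; 100% = DMSO vehicle control viability.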

Take `CCc1c2c(nc3ccc(O)cc13)-c1cc3c(c(=O)n1C2)COC(=O)[C@]3(O)CC`: the viability, T/C is 32.2% and 58.6% and 31.9% (compound 0.00316 µM); 9.97% and 8.74% and 13.6% (compound 0.01 µM); 5.41% and 4.4% and 6.58% (compound 0.0316 µM); 4.94% and 2.95% and 3.9% (compound 0.1 µM); 2.72% and 1.83% and 3.74% (compound 0.316 µM); 1.69% and 0.99% and 1.42% (compound 1 µM). Moreover, the pIC50 (curve of compound) is > 8.50 and 8.41.

For the molecule `COc1cc(C2c3cc4c(cc3C(OC3OC5COC(C)OC5C(O)C3O)C3COC(=O)C23)OCO4)cc(OC)c1O` (stereo unspecified), the viability, T/C reads like this: (compound 0.0316 µM) 91.8% and 103% and 92%; (compound 0.1 µM) 59.7% and 89.7% and 71.3%; (compound 0.316 µM) 14.1% and 19.4% and 17.1%; (compound 1 µM) 7.22% and 5.65% and 8.76%; (compound 3.16 µM) 4.9% and 4.07% and 5.15%; (compound 10 µM) 5.87% and 5.42% and 6.28%. The pIC50 (curve of compound) is 6.89 and 6.72 and 6.80.

For `O=c1[nH]cc(F)c(=O)[nH]1`, the viability, T/C (compound 0.0316 µM) was 87.3% and 92.5% and 87%; the viability, T/C (compound 0.1 µM) is 74.7% and 89% and 73.5%; the viability, T/C (compound 0.316 µM) was 33.6% and 48.5% and 30.5%; the viability, T/C (compound 1 µM) was 29.1% and 24.6% and 27.7%; the viability, T/C (compound 3.16 µM) was 24.6% and 24.4% and 26%; the viability, T/C (compound 10 µM) was 31.8% and 40.5% and 34.1%. Moreover, the pIC50 (curve of compound) was 6.70 and 6.52 and 6.73.

On to `CC1COCCN1c1cc(C2(O)CC3CCC(C2)O3)c2cnn(-c3ccn[nH]3)c2n1` (stereo unspecified) + COC1C(OC(N)=O)C(O)C(Oc2ccc3c(O)c(NC(=O)c4ccc(O)c(CC=C(C)C)c4)c(=O)oc3c2C)OC1(C)C, for which the pIC50 reads like this: under setting [1], above 7.50; under setting [2], above 7.50; under setting [3], above 7.50; under setting [4], above 7.50; under setting [5], above 7.50; under setting [6], above 7.50. In addition, the viability, T/C reads like this: under setting [7], 17.2%; under setting [8], 6.83%; under setting [9], 8.23%; under setting [10], 5.44%; under setting [11], 4.27%; under setting [12], 4.51%. For the same molecule, the viability, T/C was 17.1% under setting [13]; 6.51% under setting [14]; 4.34% under setting [15]; 4.52% under setting [16]; 3.9% under setting [17]; 4.57% under setting [18]. Besides, the viability, T/C is 22.7% under setting [19]; 9.96% under setting [20]; 4.64% under setting [21]; 3.57% under setting [22]; 5.27% under setting [23]; 4% under setting [24]. For the same molecule, the viability, T/C reads like this: under setting [25], 27.2%; under setting [26], 6.76%; under setting [27], 4.22%; under setting [28], 4.87%; under setting [29], 4.41%; under setting [30], 3.65%. Also, the viability, T/C reads like this: under setting [31], 21%; under setting [32], 8.52%; under setting [33], 4.99%; under setting [34], 4.02%; under setting [35], 4.45%; under setting [36], 4.43%. Moreover, the viability, T/C under setting [37] is 29.5%; the viability, T/C under setting [38] was 7.77%; the viability, T/C under setting [39] is 5.61%; the viability, T/C under setting [40] is 5.07%; the viability, T/C under setting [41] is 4.2%; the viability, T/C under setting [42] is 4.18%.

As for `C#Cc1c(F)ccc2cc(O)cc(-c3ncc4c(N5CC6CCC(C5)N6)nc(OCC56CCCN5CC(F)C6)nc4c3F)c12` (stereo unspecified) + COC1C(OC(N)=O)C(O)C(Oc2ccc3c(O)c(NC(=O)c4ccc(O)c(CC=C(C)C)c4)c(=O)oc3c2C)OC1(C)C, the pIC50 runs as follows: under setting [1], below 5.00; under setting [2], below 5.00; under setting [3], below 5.00; under setting [4], below 5.00; under setting [5], below 5.00; under setting [6], below 5.00. Moreover, the viability, T/C under setting [7] was 101%; the viability, T/C under setting [8] was 95.3%; the viability, T/C under setting [9] is 103%; the viability, T/C under setting [10] was 95.4%; the viability, T/C under setting [11] is 97.7%; the viability, T/C under setting [12] was 101%. The viability, T/C by setting is: under setting [13], 97.6%; under setting [14], 91.9%; under setting [15], 102%; under setting [16], 103%; under setting [17], 101%; under setting [18], 110%. In addition, the viability, T/C under setting [19] is 97.7%; the viability, T/C under setting [20] was 103%; the viability, T/C under setting [21] was 104%; the viability, T/C under setting [22] was 95.3%; the viability, T/C under setting [23] was 99.3%; the viability, T/C under setting [24] is 100%. The viability, T/C was 84.9% under setting [25]; 92% under setting [26]; 91.2% under setting [27]; 104% under setting [28]; 102% under setting [29]; 96.7% under setting [30]. Further, the viability, T/C is 100% under setting [31]; 111% under setting [32]; 92.1% under setting [33]; 111% under setting [34]; 94.5% under setting [35]; 91.4% under setting [36]. The viability, T/C under setting [37] is 95.3%; the viability, T/C under setting [38] was 105%; the viability, T/C under setting [39] is 98.4%; the viability, T/C under setting [40] is 98%; the viability, T/C under setting [41] was 91.8%; the viability, T/C under setting [42] is 103%.

Regarding `COC1C(OC(N)=O)C(O)C(Oc2ccc3c(O)c(NC(=O)c4ccc(O)c(CC=C(C)C)c4)c(=O)oc3c2C)OC1(C)C` (stereo unspecified), the viability, T/C (compound 0.0316 µM) is 99.2% [middle of 13 runs]; the viability, T/C (compound 0.1 µM) is 105% [middle of 13 runs]; the viability, T/C (compound 0.316 µM) was 99.3% [middle of 13 runs]; the viability, T/C (compound 3.16 µM) is 102% [middle of 13 runs]; the viability, T/C (compound 10 µM) was 102% [middle of 13 runs]. For the same molecule, the pIC50 (compound alone, run of 01/08/2024) is below 5.00.
